This is an account of results in the supplement of paper PMC11208160.
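Also: IS621 bridge recombinase in Escherichia coli cells against a fixed T5 target plasmid.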

This data set can be described thus: recombinant UMI read abundance after kanamycin selection (control-corrected) (log10(CPM+1)); higher = more efficient recombination; extreme values may be limits of the assay; sequences stand for … in AGTGCAGAGAAAATCGGCCAGTTTTCTCTGCCTGCAGTCCGCATGCCGTGGGACCCCTTGGGTTCTAACCTGTTGCCTAGATTTATGCAGCGGACTGCCTTTCTCCCAAAGTGATAAACCGG…AGGTTGGTTTCACT; site = the 11-nt donor. In a few lines:
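Values are reported as log10(CPM+1), obtained by converting sequencing counts to CPM, averaging replicates and scaling by control-derived factors. The counts came from recombinant UMIs amplified by PCR across the donor–target junction. These UMIs came from a pooled Escherichia coli screen of donor and donor-binding-loop pairs for the IS621 bridge recombinase, plated with IPTG (0.07 mM) plus kanamycin or left unselected, in two replicates each.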
For the sequence “CGACATACATGGACCGGTTTTCCCGGTAATCCGTATTTGCG (site CGACATACTCG)”, the “recombinant UMI read abundance (log10)” value was 2.76. For the sequence “CGACCATCATGGACCGGTTTTCCCGGTAATCCGTATTTGCG (site CGACCATCTCG)”, the “recombinant UMI read abundance (log10)” value came out at 2.23. As for “CGACCATCATGGACCGGTTTTCCCGGTAATCCGTATTTGCG (site CGATCATCTAG)”, the figure is 0; as for “CGACCCACATGGACCGGTTTTCCCGGTAATCCGTATTTGGT (site CGACCCACTAC)”, 1.23. As for “CGACCGACATGGACCGGTTTTCCCGGTAATCCGTATTTGTT (site CGAACGACTAA)”, the figure is 0.0187; as for “CGACCGACATGGACCGGTTTTCCCGGTAATCCGTATTTGTT (site CGACCGACTAA)”, 0.195; as for “CGACCGACATGGACCGGTTTTCCCGGTAATCCGTATTTGTT (site CGAGCGACTAA)”, 0.00884. Turning to “CGACCGACATGGACCGGTTTTCCCGGTAATCCGTATTTGTT (site CGATCGACTAA)”, the “recombinant UMI read abundance (log10)” value amounted to 0.00843.

“CGACGACCATGGACCGGTTTTCCCGGTAATCCGTATTTGGG (site CGAAGACCTCC)”: the “recombinant UMI read abundance (log10)” value turned out to be 0.0167. As for “CGACGACCATGGACCGGTTTTCCCGGTAATCCGTATTTGGG (site CGACGACCTCC)”, the figure is 0.0126. Regarding “CGACGACCATGGACCGGTTTTCCCGGTAATCCGTATTTGGG (site CGAGGACCTCC)”, the “recombinant UMI read abundance (log10)” value was determined as 0.0314. For the sequence “CGACGACCATGGACCGGTTTTCCCGGTAATCCGTATTTGGG (site CGATGACCTCC)”, the “recombinant UMI read abundance (log10)” value amounted to 0.0338. As for “CGACGAGCATGGACCGGTTTTCCCGGTAATCCGTATTTGGG (site ACGTCGACTTT)”, the figure is 0.00438; as for “CGACTGGCATGGACCGGTTTTCCCGGTAATCCGTATTTGTA (site CGACTGGCTTA)”, 1.65; as for “CGAGATCCATGGACCGGTTTTCCCGGTAATCCGTATTTGTT (site CGAGATCCTAA)”, 1.4.

For the sequence “CGAGATCCATGGACCGGTTTTCCCGGTAATCCGTATTTGTT (site CGGAATCCTAA)”, the “recombinant UMI read abundance (log10)” value amounted to 0. As for “CGAGCACCATGGACCGGTTTTCCCGGTAATCCGTATTTGGG (site CGAGAACCTCC)”, the figure is 0.00342; as for “CGAGCACCATGGACCGGTTTTCCCGGTAATCCGTATTTGGG (site CGAGCACCTCC)”, 0.0175.

With “CGAGCACCATGGACCGGTTTTCCCGGTAATCCGTATTTGGG (site CGAGGACCTCC)”, the “recombinant UMI read abundance (log10)” value stood at 0.0108.

As to “CGAGCACCATGGACCGGTTTTCCCGGTAATCCGTATTTGGG (site CGAGTACCTCC)”, the “recombinant UMI read abundance (log10)” value is 0.0136. For “CGAGCAGCATGGACCGGTTTTCCCGGTAATCCGTATTTGCC (site CGAGCAGCTGG)”, the “recombinant UMI read abundance (log10)” value was 2.69. With “CGAGCATCATGGACCGGTTTTCCCGGTAATCCGTATTTGGT (site CGAGCATCTAC)” the figure was 2.34. With “CGAGCCTCATGGACCGGTTTTCCCGGTAATCCGTATTTGCG (site CGAGCCTCTCG)” the figure was 2.41. With “CGAGCGACATGGACCGGTTTTCCCGGTAATCCGTATTTGAA (site CGAGCGACTTT)” the figure was 1.74; with “CGAGCTTCATGGACCGGTTTTCCCGGTAATCCGTATTTGCT (site CGAGCTTCTAG)”, 1.85.

Regarding “CGAGCTTCATGGACCGGTTTTCCCGGTAATCCGTATTTGCT (site CGATCATCTAG)”, the “recombinant UMI read abundance (log10)” value was found to be 0. On to “CGAGGGACATGGACCGGTTTTCCCGGTAATCCGTATTTGTC (site CGAGGGACTGA)”, for which the “recombinant UMI read abundance (log10)” value amounted to 2.59. As for “CGAGTACCATGGACCGGTTTTCCCGGTAATCCGTATTTGAC (site CGAGTACCTGT)”, the figure is 0.

Consider “CGAGTACCATGGACCGGTTTTCCCGGTAATCCGTATTTGAC (site CTAGTATCTGT)”, for which the “recombinant UMI read abundance (log10)” value was found to be 0.

For “CGAGTATCATGGACCGGTTTTCCCGGTAATCCGTATTTGAC (site CAAGTATCTGT)”, the “recombinant UMI read abundance (log10)” value came out at 2.57. With “CGAGTATCATGGACCGGTTTTCCCGGTAATCCGTATTTGAC (site CCAGTATCTGT)” the figure was 1.99; with “CGAGTATCATGGACCGGTTTTCCCGGTAATCCGTATTTGAC (site CGAGTATCTGT)”, 3.24. With “CGAGTATCATGGACCGGTTTTCCCGGTAATCCGTATTTGAC (site CTAGTATCTGT)” the figure was 2.01. As for “CGAGTATCATGGACCGGTTTTCCCGGTAATCCGTATTTGCT (site CGAGTATCTAG)”, the figure is 2.71; as for “CGAGTATCATGGACCGGTTTTCCCGGTAATCCGTATTTGCT (site CGATCATCTAG)”, 0. Turning to “CGAGTGGCATGGACCGGTTTTCCCGGTAATCCGTATTTGGT (site AGAGTGGCTAC)”, the “recombinant UMI read abundance (log10)” value was 0.574.

Consider “CGAGTGGCATGGACCGGTTTTCCCGGTAATCCGTATTTGGT (site CGAGTGGCTAC)”, for which the “recombinant UMI read abundance (log10)” value stood at 1.1. With “CGAGTGGCATGGACCGGTTTTCCCGGTAATCCGTATTTGGT (site GGAGTGGCTAC)” the figure was 0.0253. “CGAGTGGCATGGACCGGTTTTCCCGGTAATCCGTATTTGGT (site TGAGTGGCTAC)”: the “recombinant UMI read abundance (log10)” value came to 0.0187. With “CGAGTGTCATGGACCGGTTTTCCCGGTAATCCGTATTTGAC (site CGAGTGTCTGT)” the figure was 2.13; with “CGAGTGTCATGGACCGGTTTTCCCGGTAATCCGTATTTGAC (site CTAGTATCTGT)”, 0.545. With “CGATAAACATGGACCGGTTTTCCCGGTAATCCGTATTTGCG (site CGATAAACTCG)”, the “recombinant UMI read abundance (log10)” value is 2.63. With “CGATAATCATGGACCGGTTTTCCCGGTAATCCGTATTTGCT (site CGATAATCTAG)” the figure was 2.99; with “CGATAATCATGGACCGGTTTTCCCGGTAATCCGTATTTGCT (site CGATCATCTAG)”, 0. As for “CGATAATCATGGACCGGTTTTCCCGGTAATCCGTATTTGCT (site CGATGATCTAG)”, the figure is 0; as for “CGATAATCATGGACCGGTTTTCCCGGTAATCCGTATTTGCT (site CGATTATCTAG)”, 0.415; as for “CGATAGACATGGACCGGTTTTCCCGGTAATCCGTATTTGAG (site CGATAGACTCT)”, 2.32. Take “CGATAGACATGGACCGGTTTTCCCGGTAATCCGTATTTGAG (site CGCTAGACTCT)”: the “recombinant UMI read abundance (log10)” value was found to be 0.00552. As for “CGATAGACATGGACCGGTTTTCCCGGTAATCCGTATTTGAG (site CGGTAGACTCT)”, the figure is 0.902; as for “CGATAGACATGGACCGGTTTTCCCGGTAATCCGTATTTGAG (site CGTTAGACTCT)”, 0.979. Consider “CGATAGACATGGACCGGTTTTCCCGGTAATCCGTATTTGTT (site CGATAGACTAA)”, for which the “recombinant UMI read abundance (log10)” value was found to be 2. In the case of “CGATAGACATGGACCGGTTTTCCCGGTAATCCGTATTTGTT (site CGATCGACTAA)”, the “recombinant UMI read abundance (log10)” value stood at 0.04. As for “CGATAGACATGGACCGGTTTTCCCGGTAATCCGTATTTGTT (site CGATGGACTAA)”, the figure is 0.0144; as for “CGATAGACATGGACCGGTTTTCCCGGTAATCCGTATTTGTT (site CGATTGACTAA)”, 0.00602; as for “CGATCAACATGGACCGGTTTTCCCGGTAATCCGTATTTGCT (site CGATCAACTAG)”, 2.27. Take “CGATCAACATGGACCGGTTTTCCCGGTAATCCGTATTTGCT (site CGATCACCTAG)”: the “recombinant UMI read abundance (log10)” value was 0. With “CGATCAACATGGACCGGTTTTCCCGGTAATCCGTATTTGCT (site CGATCAGCTAG)” the figure was 0; with “CGATCAACATGGACCGGTTTTCCCGGTAATCCGTATTTGCT (site CGATCATCTAG)”, 0; with “CGATCATCATGGACCGGTTTTCCCGGTAATCCGTATTTGAT (site CGATCATCTAA)”, 0. As for “CGATCATCATGGACCGGTTTTCCCGGTAATCCGTATTTGAT (site CGATCATCTAC)”, the figure is 0.213; as for “CGATCATCATGGACCGGTTTTCCCGGTAATCCGTATTTGAT (site CGATCATCTAG)”, 0. As for “CGATCATCATGGACCGGTTTTCCCGGTAATCCGTATTTGAT (site CGATCATCTAT)”, the figure is 0.727; as for “CGATCATCATGGACCGGTTTTCCCGGTAATCCGTATTTGCC (site CGATCATCTAG)”, 0. As for “CGATCATCATGGACCGGTTTTCCCGGTAATCCGTATTTGCC (site CGATCATCTCG)”, the “recombinant UMI read abundance (log10)” value is 0.00333. With “CGATCATCATGGACCGGTTTTCCCGGTAATCCGTATTTGCC (site CGATCATCTGG)” the figure was 0; with “CGATCATCATGGACCGGTTTTCCCGGTAATCCGTATTTGCC (site CGATCATCTTG)”, 0; with “CGATCATCATGGACCGGTTTTCCCGGTAATCCGTATTTGCG (site CGATCATCTAG)”, 0. As to “CGATCATCATGGACCGGTTTTCCCGGTAATCCGTATTTGCG (site CGATCATCTCG)”, the “recombinant UMI read abundance (log10)” value stood at 2.32.
